Measurements: US9469650B2, “Melampomagnolide B derivatives” (BOARD OF TRUSTEES OF THE UNIVERSITY OF ARKANSAS, priority 2013, dated 2016)

Tests used:
K-562 = test: panel of 60 human tumor cell lines, growth inhibition (Leukemia); conditions: K-562
MOLT-4 = test: as above; conditions: MOLT-4
SR = test: as above
LOX IMVI = test: panel of 60 human tumor cell lines, growth inhibition (Melanoma)
UACC-257 = test: as above; conditions: UACC-257
SF-295 = test: panel of 60 human tumor cell lines, growth inhibition (CNS Cancer); conditions: SF-295
SF-539 = test: as above; conditions: SF-539
U251 = test: as above; conditions: U251
COLO 205 = test: panel of 60 human tumor cell lines, growth inhibition (Colon Cancer); conditions: COLO 205
HT29 = test: as above; conditions: HT29
SW-620 = test: as above; conditions: SW-620
CAKI-1 = test: panel of 60 human tumor cell lines, growth inhibition (Renal Cancer); conditions: CAKI-1
MDA-MB-468 = test: panel of 60 human tumor cell lines, growth inhibition (Breast Cancer); conditions: MDA-MB-468
OVCAR-3 = test: panel of 60 human tumor cell lines, growth inhibition (Ovarian Cancer); conditions: OVCAR-3
PC-3 = test: panel of 60 human tumor cell lines, growth inhibition (Prostate Cancer); conditions: PC-3
HOP-62 = test: panel of 60 human tumor cell lines, growth inhibition (Non-Small Cell Lung Cancer); conditions: HOP-62
HOP-92 = test: as above; conditions: HOP-92
NCI-H322M = test: as above

With C=C1C(=O)O[C@H]2[C@H]1CC/C(COC(=O)NC)=C\CC[C@@]1(C)O[C@@H]21 [JVM 2-57] the “Percent Growth” value (K-562; Log10 Concentration −4.0) was −16%, the “Percent Growth” value (K-562; Log10 Concentration −5.0) was 16% and the “Percent Growth” value (K-562; Log10 Concentration −6.0) was 92%. For the same molecule, the “Percent Growth” value (K-562; Log10 Concentration −7.0) was 92%, the “Percent Growth” value (K-562; Log10 Concentration −8.0) was 99% and the GI50 (K-562; NCI five dose) was 3.58 µM. The TGI (K-562; NCI five dose) was 3.20E−5, the “Percent Growth” value (MOLT-4; Log10 Concentration −4.0) was −39% and the “Percent Growth” value (MOLT-4; Log10 Concentration −5.0) was 8%. The “Percent Growth” value (MOLT-4; Log10 Concentration −6.0) was 98%, the “Percent Growth” value (MOLT-4; Log10 Concentration −7.0) was 90% and the “Percent Growth” value (MOLT-4; Log10 Concentration −8.0) was 97%. The GI50 (MOLT-4; NCI five dose) was 3.4 µM, the TGI (MOLT-4; NCI five dose) was 1.49E−5 and the “Percent Growth” value (SR; Log10 Concentration −4.0) was −45%. The “Percent Growth” value (SR; Log10 Concentration −5.0) was 4%, the “Percent Growth” value (SR; Log10 Concentration −6.0) was 77% and the “Percent Growth” value (SR; Log10 Concentration −7.0) was 96%. For the same molecule, the “Percent Growth” value (SR; Log10 Concentration −8.0) was 101%, the GI50 (SR; NCI five dose) was 2.33 µM and the TGI (SR; NCI five dose) was 1.21E−5. The “Percent Growth” value (LOX IMVI; Log10 Concentration −4.0) was −91%, the “Percent Growth” value (LOX IMVI; Log10 Concentration −5.0) was 21% and the “Percent Growth” value (LOX IMVI; Log10 Concentration −6.0) was 92%. The “Percent Growth” value (LOX IMVI; Log10 Concentration −7.0) was 95%, the “Percent Growth” value (LOX IMVI; Log10 Concentration −8.0) was 96% and the GI50 (LOX IMVI; NCI five dose) was 3.92 µM. The TGI (LOX IMVI; NCI five dose) was 1.55E−5, the “Percent Growth” value (UACC-257; Log10 Concentration −4.0) was −91% and the “Percent Growth” value (UACC-257; Log10 Concentration −5.0) was 24%. The “Percent Growth” value (UACC-257; Log10 Concentration −6.0) was 73%, the “Percent Growth” value (UACC-257; Log10 Concentration −7.0) was 94% and the “Percent Growth” value (UACC-257; Log10 Concentration −8.0) was 94%. For the same molecule, the GI50 (UACC-257; NCI five dose) was 2.96 µM, the TGI (UACC-257; NCI five dose) was 1.62E−5 and the “Percent Growth” value (SF-295; Log10 Concentration −4.0) was −30%. For the same molecule, the “Percent Growth” value (SF-295; Log10 Concentration −5.0) was 76%, the “Percent Growth” value (SF-295; Log10 Concentration −6.0) was 93% and the “Percent Growth” value (SF-295; Log10 Concentration −7.0) was 90%. The “Percent Growth” value (SF-295; Log10 Concentration −8.0) was 97%, the GI50 (SF-295; NCI five dose) was 17.5 µM and the TGI (SF-295; NCI five dose) was 5.21E−5. The “Percent Growth” value (SF-539; Log10 Concentration −4.0) was −92%, the “Percent Growth” value (SF-539; Log10 Concentration −5.0) was 22% and the “Percent Growth” value (SF-539; Log10 Concentration −6.0) was 88%. The “Percent Growth” value (SF-539; Log10 Concentration −7.0) was 91%, the “Percent Growth” value (SF-539; Log10 Concentration −8.0) was 97% and the GI50 (SF-539; NCI five dose) was 3.8 µM. For the same molecule, the TGI (SF-539; NCI five dose) was 1.57E−5, the “Percent Growth” value (U251; Log10 Concentration −4.0) was −100% and the “Percent Growth” value (U251; Log10 Concentration −5.0) was 81%. For the same molecule, the “Percent Growth” value (U251; Log10 Concentration −6.0) was 92%, the “Percent Growth” value (U251; Log10 Concentration −7.0) was 97% and the “Percent Growth” value (U251; Log10 Concentration −8.0) was 99%. The GI50 (U251; NCI five dose) was 14.9 µM, the TGI (U251; NCI five dose) was 2.81E−5 and the “Percent Growth” value (COLO 205; Log10 Concentration −4.0) was −94%. The “Percent Growth” value (COLO 205; Log10 Concentration −5.0) was −8%, the “Percent Growth” value (COLO 205; Log10 Concentration −6.0) was 95% and the “Percent Growth” value (COLO 205; Log10 Concentration −7.0) was 97%. The “Percent Growth” value (COLO 205; Log10 Concentration −8.0) was 103%, the GI50 (COLO 205; NCI five dose) was 2.73 µM and the TGI (COLO 205; NCI five dose) was 8.33E−6. For the same molecule, the CC50 (COLO 205; read-out: LC50, NCI five dose) was 30.8 µM, the “Percent Growth” value (HT29; Log10 Concentration −4.0) was −73% and the “Percent Growth” value (HT29; Log10 Concentration −5.0) was 21%. The “Percent Growth” value (HT29; Log10 Concentration −6.0) was 104%, the “Percent Growth” value (HT29; Log10 Concentration −7.0) was 96% and the “Percent Growth” value (HT29; Log10 Concentration −8.0) was 101%. The GI50 (HT29; NCI five dose) was 4.5 µM, the TGI (HT29; NCI five dose) was 1.68E−5 and the “Percent Growth” value (SW-620; Log10 Concentration −4.0) was −80%. The “Percent Growth” value (SW-620; Log10 Concentration −5.0) was 6%, the “Percent Growth” value (SW-620; Log10 Concentration −6.0) was 65% and the “Percent Growth” value (SW-620; Log10 Concentration −7.0) was 99%. For the same molecule, the “Percent Growth” value (SW-620; Log10 Concentration −8.0) was 98%, the GI50 (SW-620; NCI five dose) was 1.8 µM and the TGI (SW-620; NCI five dose) was 1.16E−5. The “Percent Growth” value (CAKI-1; Log10 Concentration −4.0) was −97%, the “Percent Growth” value (CAKI-1; Log10 Concentration −5.0) was 10% and the “Percent Growth” value (CAKI-1; Log10 Concentration −6.0) was 82%. For the same molecule, the “Percent Growth” value (CAKI-1; Log10 Concentration −7.0) was 89%, the “Percent Growth” value (CAKI-1; Log10 Concentration −8.0) was 96% and the GI50 (CAKI-1; NCI five dose) was 2.78 µM. For the same molecule, the TGI (CAKI-1; NCI five dose) was 1.25E−5, the “Percent Growth” value (MDA-MB-468; Log10 Concentration −4.0) was −65% and the “Percent Growth” value (MDA-MB-468; Log10 Concentration −5.0) was −18%. For the same molecule, the “Percent Growth” value (MDA-MB-468; Log10 Concentration −6.0) was 58%, the “Percent Growth” value (MDA-MB-468; Log10 Concentration −7.0) was 99% and the “Percent Growth” value (MDA-MB-468; Log10 Concentration −8.0) was 100%. For the same molecule, the GI50 (MDA-MB-468; NCI five dose) was 1.26 µM, the TGI (MDA-MB-468; NCI five dose) was 5.83E−6 and the “Percent Growth” value (OVCAR-3; Log10 Concentration −4.0) was −100%. For the same molecule, the “Percent Growth” value (OVCAR-3; Log10 Concentration −5.0) was 7%, the “Percent Growth” value (OVCAR-3; Log10 Concentration −6.0) was 86% and the “Percent Growth” value (OVCAR-3; Log10 Concentration −7.0) was 100%. The “Percent Growth” value (OVCAR-3; Log10 Concentration −8.0) was 99%, the GI50 (OVCAR-3; NCI five dose) was 2.87 µM and the TGI (OVCAR-3; NCI five dose) was 1.17E−5. For the same molecule, the “Percent Growth” value (PC-3; Log10 Concentration −4.0) was −70%, the “Percent Growth” value (PC-3; Log10 Concentration −5.0) was 67% and the “Percent Growth” value (PC-3; Log10 Concentration −6.0) was 96%. For the same molecule, the “Percent Growth” value (PC-3; Log10 Concentration −7.0) was 97%, the “Percent Growth” value (PC-3; Log10 Concentration −8.0) was 98% and the GI50 (PC-3; NCI five dose) was 13.3 µM. For the same molecule, the TGI (PC-3; NCI five dose) was 3.08E−5, the “Percent Growth” value (HOP-62; Log10 Concentration −4.0) was −86% and the “Percent Growth” value (HOP-62; Log10 Concentration −5.0) was 72%. For the same molecule, the “Percent Growth” value (HOP-62; Log10 Concentration −6.0) was 92%, the “Percent Growth” value (HOP-62; Log10 Concentration −7.0) was 86% and the “Percent Growth” value (HOP-62; Log10 Concentration −8.0) was 95%. The GI50 (HOP-62; NCI five dose) was 13.9 µM, the TGI (HOP-62; NCI five dose) was 2.87E−5 and the “Percent Growth” value (HOP-92; Log10 Concentration −4.0) was −95%. The “Percent Growth” value (HOP-92; Log10 Concentration −5.0) was −9%, the “Percent Growth” value (HOP-92; Log10 Concentration −6.0) was 83% and the “Percent Growth” value (HOP-92; Log10 Concentration −7.0) was 91%. For the same molecule, the “Percent Growth” value (HOP-92; Log10 Concentration −8.0) was 92%, the GI50 (HOP-92; NCI five dose) was 2.26 µM and the TGI (HOP-92; NCI five dose) was 7.90E−6. For the same molecule, the “Percent Growth” value (NCI-H322M; Log10 Concentration −4.0) was −17%, the “Percent Growth” value (NCI-H322M; Log10 Concentration −5.0) was 78% and the “Percent Growth” value (NCI-H322M; Log10 Concentration −6.0) was 97%. The “Percent Growth” value (NCI-H322M; Log10 Concentration −7.0) was 94%, the “Percent Growth” value (NCI-H322M; Log10 Concentration −8.0) was 98% and the GI50 (NCI-H322M; NCI five dose) was 19.7 µM. It also gave a TGI (NCI-H322M; NCI five dose) of 6.62E−5.
